Results reported in patent US9169243B2, “Apoptosis signal-regulating kinase inhibitors” (Gilead Sciences, Inc., priority 2013, dated 2015).

Each compound was assayed against recombinant human ASK1 kinase (Homo sapiens (Human), UniProt Q99683) (assay: TR-FRET ASK1 (Apoptosis Signal-Regulating Kinase 1) kinase assay). Conditions: TR-FRET/HTRF, 4 nM ASK1, 1 μM STK3 peptide substrate, 100 μM ATP, 3 hr; average of quadruplicate determination.
Assay type: biochemical
Source text: I. TR-FRET ASK1 (Apoptosis Signal-Regulating Kinase 1) Kinase Assay
To evaluate the inhibitory activity of compounds of the invention against ASK1 (Apoptosis Signal-regulating Kinase 1) kinase, its activity was examined using a TR-FRET ASK1 kinase assay which determined the amount of phosphate transferred to a peptide substrate from ATP.
Dephosphorylated recombinant human ASK1 kinase was from Gilead Sciences. Small molecule kinase inhibitor staurosporine (Catalogue #S6942) and dithiothreitol (DTT, catalogue #43815-5G) were obtained from Sigma Chemicals (St. Louis, Mo.). ATP (catalogue #7724) was from Affymetrix (Santa Clara, Calif.) and test compounds were from Gilead Sciences. HTRF KinEASE™-STK S3 kit was obtained from Cisbio (Bedford, Mass.). All other reagents were of the highest grade commercially available.
The assay measures the phosphorylation level of a biotinylated peptide substrate by the ASK1 kinase using HTRF detection. This is a competitive, time-resolved fluorescence resonance energy transfer (TR-FRET) immunoassay, based on HTRF® KinEASE™-STK manual from Cisbio. Test compound, 1 μM STK3 peptide substrate, 4 nM of ASK1 kinase were incubated with 10 mM MOP buffer, pH. 7.0 containing 10 mM Mg-acetate, 0.025% NP-40, 1 mM DTT, 0.05% BSA and 1.5% glycerol for 30 minutes then 100 μM ATP was added to start the kinase reaction and incubated for 3 hr. Peptide antibody labeled with 1×Eu^3+ Cryptate buffer containing 10 mM EDTA and 125 nM Streptavidin XL665 were added to stop the reaction and phosphorylated peptide substrate was detected using Envision 2103 Multilabeled reader from PerkinElmer. The fluorescence was measured at 615 nm (Cryptate) and 665 nm (XL665) and a ratio of 665 nm/615 nm was calculated for each well. The resulting TR-FRET level (a ratio of 665 nm/615 nm) was proportional to the phosphorylation level. Under these assay conditions, the degree of phosphorylation of peptide substrate was linear with time and concentration for the enzyme. The assay system yielded consistent results with regard to Km and specific activities for the enzyme. For inhibition experiments (IC50 values), activities were performed with constant concentrations of ATP, peptide and several fixed concentrations of inhibitors. Staurosporine, the nonselective kinase inhibitor, was used as the positive control. All enzyme activity data are reported as an average of quadruplicate determination.
The IC50 values were calculated following equation: y=Range/{1+(x/IC50)^s}+Background where x and y represent the concentration of inhibitors and enzyme activity, respectively. Enzyme activity is expressed as the amount of Phosphate incorporated into substrate peptide from ATP. Range is the maximum y range (no inhibitor, DMSO control) and s is a slope factor.

Chain of recombinant human ASK1 kinase (Q99683 whole entry): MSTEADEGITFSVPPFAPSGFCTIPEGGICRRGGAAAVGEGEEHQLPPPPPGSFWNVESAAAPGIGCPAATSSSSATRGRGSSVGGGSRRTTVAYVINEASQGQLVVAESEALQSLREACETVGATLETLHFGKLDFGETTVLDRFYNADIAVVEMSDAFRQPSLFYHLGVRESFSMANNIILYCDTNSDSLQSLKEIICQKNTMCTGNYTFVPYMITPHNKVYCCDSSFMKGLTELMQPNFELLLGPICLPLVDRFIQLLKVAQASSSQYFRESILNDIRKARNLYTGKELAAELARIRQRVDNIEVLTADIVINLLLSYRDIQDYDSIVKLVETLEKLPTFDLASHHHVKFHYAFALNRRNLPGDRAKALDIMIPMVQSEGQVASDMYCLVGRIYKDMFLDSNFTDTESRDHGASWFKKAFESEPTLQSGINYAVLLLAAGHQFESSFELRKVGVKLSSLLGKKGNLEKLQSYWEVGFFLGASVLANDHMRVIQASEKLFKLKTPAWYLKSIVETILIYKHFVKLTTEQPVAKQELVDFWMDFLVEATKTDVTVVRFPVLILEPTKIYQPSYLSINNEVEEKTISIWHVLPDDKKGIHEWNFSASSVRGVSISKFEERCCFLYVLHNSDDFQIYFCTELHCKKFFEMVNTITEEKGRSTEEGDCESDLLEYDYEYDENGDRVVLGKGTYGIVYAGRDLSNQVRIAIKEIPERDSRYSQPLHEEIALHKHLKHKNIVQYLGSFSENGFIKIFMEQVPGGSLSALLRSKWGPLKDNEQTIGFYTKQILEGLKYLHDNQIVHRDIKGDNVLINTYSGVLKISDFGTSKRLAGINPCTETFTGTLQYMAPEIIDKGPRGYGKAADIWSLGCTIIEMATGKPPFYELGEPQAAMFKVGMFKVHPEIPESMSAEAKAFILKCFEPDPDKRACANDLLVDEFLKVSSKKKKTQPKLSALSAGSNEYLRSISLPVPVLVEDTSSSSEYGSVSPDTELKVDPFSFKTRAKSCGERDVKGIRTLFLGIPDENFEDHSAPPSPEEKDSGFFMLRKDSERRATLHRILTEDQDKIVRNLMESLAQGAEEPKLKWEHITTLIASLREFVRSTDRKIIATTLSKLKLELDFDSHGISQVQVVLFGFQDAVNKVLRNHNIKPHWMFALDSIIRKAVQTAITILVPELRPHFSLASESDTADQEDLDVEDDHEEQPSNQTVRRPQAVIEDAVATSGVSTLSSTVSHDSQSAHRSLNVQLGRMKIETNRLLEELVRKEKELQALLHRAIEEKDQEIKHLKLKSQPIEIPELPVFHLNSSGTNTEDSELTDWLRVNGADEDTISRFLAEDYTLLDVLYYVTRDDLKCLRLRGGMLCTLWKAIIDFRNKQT

Compound	IC50
COC1(C)CN(c2cnc(C(=O)Nc3csc(-c4nncn4[C@@H](C)C(F)(F)F)n3)cc2-n2cnc(C3CC3)c2)C1 [Compound 25, (S)-4-(4-cyclopropyl-1H-imidazol-1-yl)-5-(3-methoxy-3-methylazetidin-1-yl)-N-(2-(4-(1,1,1-trifluoropropan-2-yl)-4H-1,2,4-triazol-3-yl)thiazol-4-yl)picolinamide]	2 nM
C[C@H](n1cnnc1-c1nc(NC(=O)c2cc(-n3cnc(C4CC4)c3)c(N3CC(C(F)F)C3)cn2)cs1)C(F)(F)F [Compound 26, (S)-4-(4-cyclopropyl-1H-imidazol-1-yl)-5-(3-(difluoromethyl)azetidin-1-yl)-N-(2-(4-(1,1,1-trifluoropropan-2-yl)-4H-1,2,4-triazol-3-yl)thiazol-4-yl)picolinamide]	1.7 nM
C[C@H](n1cnnc1-c1nc(NC(=O)c2cc(-n3cnc(C4CC4)c3)c(N3CCC(F)(F)C3)cn2)cs1)C(F)(F)F [Compound 27, (S)-4-(4-cyclopropyl-1H-imidazol-1-yl)-5-(3,3-difluoropyrrolidin-1-yl)-N-(2-(4-(1,1,1-trifluoropropan-2-yl)-4H-1,2,4-triazol-3-yl)thiazol-4-yl)picolinamide]	2.1 nM
C[C@H](n1cnnc1-c1nc(NC(=O)c2cc(-n3cnc(C4CC4)c3)c(N3CCC(C#N)CC3)cn2)cs1)C(F)(F)F [Compound 29, (S)-5-(4-cyanopiperidin-1-yl)-4-(4-cyclopropyl-1H-imidazol-1-yl)-N-(2-(4-(1,1,1-trifluoropropan-2-yl)-4H-1,2,4-triazol-3-yl)thiazol-4-yl)picolinamide]	1.7 nM
COC1CCN(c2cnc(C(=O)Nc3csc(-c4nncn4[C@@H](C)C(F)(F)F)n3)cc2-n2cnc(C3CC3)c2)CC1 [Compound 30, (S)-4-(4-cyclopropyl-1H-imidazol-1-yl)-5-(4-methoxypiperidin-1-yl)-N-(2-(4-(1,1,1-trifluoropropan-2-yl)-4H-1,2,4-triazol-3-yl)thiazol-4-yl)picolinamide]	2.3 nM
CNC(=O)C1CCN(c2cnc(C(=O)Nc3csc(-c4nncn4[C@@H](C)C(F)(F)F)n3)cc2-n2cnc(C3CC3)c2)CC1 [Compound 31, (S)-4-(4-cyclopropyl-1H-imidazol-1-yl)-5-(4-(methylcarbamoyl)piperidin-1-yl)-N-(2-(4-(1,1,1-trifluoropropan-2-yl)-4H-1,2,4-triazol-3-yl)thiazol-4-yl)picolinamide]	2.3 nM

Second part, the compound after the results:

IC50	Compound
1.5 nM	C[C@H](n1cnnc1-c1nc(NC(=O)c2cc(-n3cnc(C4CC4)c3)c(N3CCC(C(F)(F)F)CC3)cn2)cs1)C(F)(F)F [Compound 32, (S)-4-(4-cyclopropyl-1H-imidazol-1-yl)-5-(4-(trifluoromethyl)piperidin-1-yl)-N-(2-(4-(1,1,1-trifluoropropan-2-yl)-4H-1,2,4-triazol-3-yl)thiazol-4-yl)picolinamide]
1.7 nM	C[C@H](n1cnnc1-c1nc(NC(=O)c2cc(-n3cnc(C4CC4)c3)c(N3CCC(F)CC3)cn2)cs1)C(F)(F)F [Compound 34, (S)-4-(4-cyclopropyl-1H-imidazol-1-yl)-5-(4-fluoropiperidin-1-yl)-N-(2-(4-(1,1,1-trifluoropropan-2-yl)-4H-1,2,4-triazol-3-yl)thiazol-4-yl)picolinamide]
2.2 nM	COC1(C)CCN(c2cnc(C(=O)Nc3csc(-c4nncn4[C@@H](C)C(F)(F)F)n3)cc2-n2cnc(C3CC3)c2)CC1 [Compound 35, (S)-4-(4-cyclopropyl-1H-imidazol-1-yl)-5-(4-methoxy-4-methylpiperidin-1-yl)-N-(2-(4-(1,1,1-trifluoropropan-2-yl)-4H-1,2,4-triazol-3-yl)thiazol-4-yl)picolinamide]
1.9 nM	C[C@H](n1cnnc1-c1nc(NC(=O)c2cc(-n3cnc(C4CC4)c3)c(N3CCCOCC3)cn2)cs1)C(F)(F)F [Compound 36, (S)-4-(4-cyclopropyl-1H-imidazol-1-yl)-5-(1,4-oxazepan-4-yl)-N-(2-(4-(1,1,1-trifluoropropan-2-yl)-4H-1,2,4-triazol-3-yl)thiazol-4-yl)picolinamide]
